Measured values reported in US20060069132A1, “Azolecarboxamide herbicides” (priority 2004, published 2006).

Columns and labels:
[1] = system: rice; assay: Test B pre-/postemergence herbicide test; format: in vivo, Oryza sativa; settings: preemergence; for Plant response rating, Rice: 500 g ai/ha, visual rating
Method in brief: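 Evaluation is visual, comparing treated with control plants on a scale where 0 means no effect and 100 means full control. Treatments were preemergence, or postemergence on seedlings 2–18 cm tall, and held 13–15 days in the greenhouse.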

[2] = system: ducksalad; assay: Test B flooded paddy test; format: in vivo, Heteranthera limosa; settings: 1000 g ai/ha, scale 0 to 100 (0 no effect, 100 complete control)
Method in brief: (§1)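 Visual ratings, 0 (no effect) to 100 (complete control), made versus controls after 13–15 d greenhouse. Paddy plants treated at 2-leaf stage; postemergence plants at 1- to 4-leaf stage, 2–18 cm tall.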

[3] = system: cocklebur; assay: Test B pre-/postemergence herbicide test; format: in vivo, Xanthium strumarium
Method in brief: (§2)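 Visual rating, 0 (no effect) to 100 (complete control), versus untreated controls after 13–15 d in greenhouse. Pre- and postemergence applications (postemergence plants 2–18 cm, 1–4 leaves); flooded paddy arm at 2-leaf stage. Compounds in non-phytotoxic solvent plus surfactant.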

[4] = system: Surinam grass; assay: Test B pre-/postemergence herbicide test; format: in vivo, Urochloa decumbens
Method in brief: (§3)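 Flooded paddy rice and barnyardgrass were treated at the 2-leaf stage; upland plantings received compound either on sown seed or on 1- to 4-leaf seedlings. All were kept 13–15 days in a greenhouse and scored visually, 0–100, relative to untreated plants.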

[5] = system: blackgrass; assay: Test B postemergence herbicide test; format: in vivo, Alopecurus myosuroides
Method in brief: as §1

[6] = system: morningglory; assay: Test B pre-/postemergence herbicide test; format: in vivo, Ipomoea coccinea
Method in brief: as §2

[7] = system: giant foxtail; assay: Test B pre-/postemergence herbicide test; format: in vivo, Setaria faberi
Method in brief: as §3

[8] = system: wild oat; assay: Test B postemergence herbicide test; format: in vivo, Avena fatua
Method in brief: as §1

[9] = system: barnyardgrass; assay: Test B flooded paddy test; format: in vivo, Echinochloa crus-galli; settings: 1000 g ai/ha, scale 0 to 100 (0 no effect, 100 complete control)
Method in brief: as §1

[10] = system: corn; assay: Test B pre-/postemergence herbicide test; format: in vivo, Zea mays
Method in brief: as §3

[11] = system: pigweed; assay: Test B pre-/postemergence herbicide test; format: in vivo, Amaranthus retroflexus
Method in brief: as §3

[12] = system: rice; assay: Test B flooded paddy test; format: in vivo, Oryza sativa; settings: 1000 g ai/ha, scale 0 to 100 (0 no effect, 100 complete control)
Method in brief: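 After treating 2-leaf paddy plants or 2–18 cm postemergence plants (1 to 4 leaves) with formulated chemical, researchers kept them in a greenhouse for 13–15 days. Effects were judged visually versus controls: 0 indicates none, 100 total control.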

[13] = system: velvetleaf; assay: Test B pre-/postemergence herbicide test; format: in vivo, Abutilon theophrasti
Method in brief: as §3

[14] = system: lambsquarters; assay: Test B pre-/postemergence herbicide test; format: in vivo, Chenopodium album
Method in brief: as §3

[15] = system: wheat; assay: Test B postemergence herbicide test; format: in vivo, Triticum aestivum; design: key to Wheat plant response rating: 0 = no effect, 100 = complete control
Method in brief: as §1

[16] = system: barnyardgrass; assay: Test B pre-/postemergence herbicide test; format: in vivo, Echinochloa crus-galli
Method in brief: as §2

[17] = system: small flower umbrella sedge; assay: Test B flooded paddy test; format: in vivo, Cyperus difformis; settings: 1000 g ai/ha, scale 0 to 100 (0 no effect, 100 complete control)
Method in brief: as §1

[18] = system: large crabgrass; assay: Test B pre-/postemergence herbicide test; format: in vivo, Digitaria sanguinalis
Method in brief: as §3

[19] = 0 = no effect, 100 = complete control
[20] = 125 g ai/ha; 0 = no effect, 100 = complete control; preemergence
[21] = 500 g ai/ha; visual rating, 0 = no effect, 100 = complete control; preemergence
[22] = postemergence, 125 g ai/ha; visual rating, scale 0 (no effect) to 100 (complete control)
[23] = postemergence, 500 g ai/ha; visual rating, scale 0 (no effect) to 100 (complete control)
[24] = postemergence, 500 g ai/ha; scale 0 to 100, 0 is no effect, 100 is complete control
[25] = 125 g ai/ha; 0 is no effect, 100 is complete control; preemergence
[26] = 125 g ai/ha; visual rating, scale 0 (no effect) to 100 (complete control); postemergence

How did the “Rice plant response rating (0 to 100 scale)” value ([1]; 125 g ai/ha, 0 = no effect, 100 = complete control) turn out when `CCn1nc(C(C)(C)C)cc1C(=O)Nc1nc(C(=O)OC)ccc1OC` [Compound 265] was run?
The value was 0.

And the “Plant response rating, Rice” value [1, 19]?
The value was 0.

What about the “Ducksalad plant response rating” value [2] of the same molecule?
Its value is 0.

And the “Cocklebur plant response rating (0 to 100 scale)” value [3, 20]?
Its value is 0.

What about the “Plant response rating, Cocklebur” value [3, 21] of the same molecule?
The value was 0.

And the “Cocklebur plant response rating” value [3, 22]?
Its value is 0.

What about the “Cocklebur plant response rating” value [3, 23] of the same molecule?
Its value is 0.

What about the “Surinam Grass plant response rating (0 to 100 scale)” value [4, 20] of the same molecule?
The value was 0.

What about the “Plant response rating, Surinam Grass” value [4, 21] of the same molecule?
The value was 40.

And the “Surinam Grass plant response rating” value [4, 22]?
The value was 0.

And the “Surinam Grass plant response rating” value [4, 24]?
Its value is 0.

What about the “Blackgrass plant response rating” value [5, 22] of the same molecule?
Its value is 0.

And the “Blackgrass plant response rating” value [5, 23]?
Its value is 10.

What about the “Morningglory plant response rating (0 to 100 scale)” value [6, 20] of the same molecule?
Its value is 0.

What about the “Plant response rating, Morningglory” value [6, 21] of the same molecule?
The value was 0.

And the “Morningglory plant response rating” value [6, 22]?
The value was 0.

And the “Morningglory plant response rating” value [6, 24]?
The value was 10.

And the “Foxtail, Giant plant response rating (0 to 100 scale)” value [7, 20]?
Its value is 0.

What about the “Plant response rating, Foxtail, Giant” value [7, 21] of the same molecule?
Its value is 50.

What about the “Foxtail, Giant plant response rating” value [7, 22] of the same molecule?
The value was 0.

What about the “Foxtail, Giant plant response rating” value [7, 24] of the same molecule?
The value was 0.

And the “Oat, Wild plant response rating” value [8, 22]?
The value was 0.

And the “Oat, Wild plant response rating” value [8, 24]?
The value was 10.

What about the “Barnyardgrass plant response rating” value [9] of the same molecule?
The value was 0.

What about the “Corn plant response rating (0 to 100 scale)” value [10, 20] of the same molecule?
Its value is 0.

What about the “Plant response rating, Corn” value [10, 21] of the same molecule?
The value was 0.

What about the “Corn plant response rating” value [10, 22] of the same molecule?
Its value is 0.

And the “Corn plant response rating” value [10, 24]?
The value was 10.

What about the “Pigweed plant response rating (0 to 100 scale)” value [11, 20] of the same molecule?
The value was 0.

And the “Plant response rating, Pigweed” value [11, 21]?
Its value is 0.

What about the “Pigweed plant response rating” value [11, 22] of the same molecule?
Its value is 0.

What about the “Pigweed plant response rating” value [11, 24] of the same molecule?
The value was 20.

What about the “Rice plant response rating” value [12] of the same molecule?
Its value is 0.

And the “Velvetleaf plant response rating (0 to 100 scale)” value [13, 20]?
The value was 0.

What about the “Plant response rating, Velvetleaf” value [13, 21] of the same molecule?
Its value is 10.

What about the “Velvetleaf plant response rating” value [13, 22] of the same molecule?
Its value is 0.

What about the “Velvetleaf plant response rating” value [13, 24] of the same molecule?
Its value is 10.

What about the “Plant response rating, Lambsquarters” value [14, 21] of the same molecule?
Its value is 0.

What about the “Lambsquarters plant response rating” value [14, 22] of the same molecule?
The value was 0.

And the “Lambsquarters plant response rating” value [14, 24]?
The value was 0.

What about the “Wheat plant response rating” value [15, 22] of the same molecule?
The value was 0.

What about the “Wheat plant response rating” value [15, 24] of the same molecule?
Its value is 10.

And the “Barnyardgrass plant response rating (0 to 100 scale)” value [16, 20]?
The value was 0.

What about the “Plant response rating, Barnyardgrass” value [16, 21] of the same molecule?
Its value is 0.

And the “Barnyardgrass plant response rating” value [16, 22]?
Its value is 0.

What about the “Barnyardgrass plant response rating” value [16, 23] of the same molecule?
Its value is 0.

What about the “Sedge, Umbrella plant response rating” value [17] of the same molecule?
Its value is 0.

What about the “Crabgrass, Large plant response rating” value [18, 22] of the same molecule?
The value was 0.

And the “Crabgrass, Large plant response rating” value [18, 24]?
Its value is 0.

`CCNC(=O)c1cccc(NC(=O)c2cc(C(C)(C)C)n[nH]2)c1` [Compound 351] was tested. Which “Plant response rating (0 to 100 scale), Rice” value ([1]; 125 g ai/ha, 0 is no effect, 100 is complete control) did it give?
The value was 0.

What about the “Plant response rating, Rice” value [1, 19] of the same molecule?
Its value is 0.

And the “Ducksalad plant response rating” value [2]?
Its value is 0.

And the “Plant response rating (0 to 100 scale), Cocklebur” value [3, 25]?
Its value is 0.

And the “Cocklebur plant response rating” value [3, 26]?
Its value is 0.

And the “Plant response rating, Cocklebur” value [3, 21]?
The value was 0.

What about the “Cocklebur plant response rating” value [3, 24] of the same molecule?
Its value is 0.

What about the “Plant response rating (0 to 100 scale), Surinam Grass” value [4, 25] of the same molecule?
The value was 0.

What about the “Surinam Grass plant response rating” value [4, 26] of the same molecule?
The value was 0.

And the “Plant response rating, Surinam Grass” value [4, 21]?
The value was 0.

What about the “Surinam Grass plant response rating” value [4, 24] of the same molecule?
The value was 0.

And the “Blackgrass plant response rating” value [5, 26]?
The value was 0.

And the “Blackgrass plant response rating” value [5, 24]?
Its value is 0.

What about the “Plant response rating (0 to 100 scale), Morningglory” value [6, 25] of the same molecule?
Its value is 0.

What about the “Morningglory plant response rating” value [6, 26] of the same molecule?
Its value is 0.

What about the “Plant response rating, Morningglory” value [6, 21] of the same molecule?
The value was 0.

And the “Morningglory plant response rating” value [6, 24]?
Its value is 0.

And the “Plant response rating (0 to 100 scale), Foxtail, Giant” value [7, 25]?
Its value is 0.

And the “Foxtail, Giant plant response rating” value [7, 26]?
The value was 0.

What about the “Plant response rating, Foxtail, Giant” value [7, 21] of the same molecule?
The value was 0.

And the “Foxtail, Giant plant response rating” value [7, 24]?
Its value is 0.

What about the “Oat, Wild plant response rating” value [8, 26] of the same molecule?
Its value is 0.

What about the “Oat, Wild plant response rating” value [8, 24] of the same molecule?
The value was 0.

What about the “Barnyardgrass plant response rating” value [9] of the same molecule?
The value was 0.

What about the “Plant response rating (0 to 100 scale), Corn” value [10, 25] of the same molecule?
The value was 0.

And the “Corn plant response rating” value [10, 26]?
Its value is 0.

And the “Plant response rating, Corn” value [10, 21]?
Its value is 0.

And the “Corn plant response rating” value [10, 24]?
The value was 10.

What about the “Plant response rating (0 to 100 scale), Pigweed” value [11, 25] of the same molecule?
The value was 0.

What about the “Pigweed plant response rating” value [11, 26] of the same molecule?
The value was 0.

What about the “Plant response rating, Pigweed” value [11, 21] of the same molecule?
Its value is 0.

And the “Pigweed plant response rating” value [11, 24]?
The value was 50.

What about the “Rice plant response rating” value [12] of the same molecule?
The value was 0.

What about the “Plant response rating (0 to 100 scale), Velvetleaf” value [13, 25] of the same molecule?
Its value is 0.

And the “Velvetleaf plant response rating” value [13, 26]?
The value was 0.

What about the “Velvetleaf plant response rating” value [13, 24] of the same molecule?
Its value is 0.

What about the “Plant response rating (0 to 100 scale), Lambsquarters” value [14, 25] of the same molecule?
Its value is 0.

What about the “Lambsquarters plant response rating” value [14, 26] of the same molecule?
The value was 0.

What about the “Plant response rating, Lambsquarters” value [14, 21] of the same molecule?
The value was 0.

And the “Lambsquarters plant response rating” value [14, 24]?
Its value is 10.

What about the “Wheat plant response rating” value [15, 26] of the same molecule?
The value was 0.

And the “Wheat plant response rating” value [15, 24]?
The value was 0.

What about the “Plant response rating (0 to 100 scale), Barnyardgrass” value [16, 25] of the same molecule?
Its value is 0.

What about the “Barnyardgrass plant response rating” value [16, 26] of the same molecule?
Its value is 0.

What about the “Plant response rating, Barnyardgrass” value [16, 21] of the same molecule?
The value was 0.

And the “Barnyardgrass plant response rating” value [16, 24]?
Its value is 0.

And the “Sedge, Umbrella plant response rating” value [17]?
The value was 0.

And the “Plant response rating (0 to 100 scale), Crabgrass, Large” value [18, 25]?
Its value is 0.

What about the “Crabgrass, Large plant response rating” value [18, 26] of the same molecule?
The value was 0.

What about the “Plant response rating, Crabgrass, Large” value [18, 21] of the same molecule?
The value was 0.

What about the “Crabgrass, Large plant response rating” value [18, 24] of the same molecule?
The value was 10.
